Data from patent US20240207282A1, “METHOD OF INCREASING CHAPERONE MEDIATED AUTOPHAGY BY STABILIZING THE INTERACTION OF RETINOIC ACID RECEPTOR-ALPHA AND AN INHIBITOR” (ALBERT EINSTEIN COLLEGE OF MEDICINE, priority 2021, published 2024).

Tests used:
NIH3T3 cells = assay: CMA activity, KFERQ-PS-Dendra reporter in NIH3T3 cells; format: cell-based, mouse; conditions: for CMA activation after washout: 12 h after washing out the compounds from the media; for CMA activating effect upon knock-down of NCoR1: NCoR1 KD NIH3T3, 20 μM, 24 h; for CMA activation: increasing concentrations, 12 or 24 h, compared with AR7
Experimental: CMA activity: Cells were transduced with lentivirus carrying the KFERQ-PS-Dendra reporter as before. Cells were photoactivated by exposure to a 3.5 mA (current constant) light emitting diode (LED: Norlux, 405 nm) for 3 min and then plated in glass-bottom 96 well plates. At the desired times, cells were fixed with 4% PFA and imaged using high-content microscopy (Operetta system, Perkin Elmer). Images were quantified using the manufacturer's software in a minimum of 1,200 cells in 9 independent fields per well. […] This was particularly important in the case of primary human cells where efficiency of transduction was approximately 65%. To avoid con-funding effects for drug-induced changes in cell volume or adherence to the plate that could bring a fraction of the cells per field outside of focus, we set a threshold to count only cells that have at least 1/10 of the average number of […] detected in the untreated wells for each cell type (3-4 puncta/cell in the case of NIH3T3 and N2a cells and 5 puncta/cell in primary human fibroblasts). To measure CMA in the tissues from KFERQ-Dendra mice, the organs of interest were fixed for 12 h at 4° C. in picric acid fixation buffer (2% formaldehyde, 0.2% picric acid in PBS, pH7.0) and then washed with 70% ethanol, followed by two washes in PBS. Tissues were immersed in 30% sucrose and then embedded in OCT for sectioning in a cryostat (Leica CM3050 S). After airdrying for 30 min, sections were stored at −20° C. until use. Slices were mounted in DAPI-Fluoromount-G to highlight the cell nucleus and allow quantification of puncta per cell. Images were acquired in x-y-z planes with an Axiovert 200 fluorescence microscope (Carl Zeiss Ltd) with a ×63 objective and 1.4 numerical aperture, mounted with an ApoTome.2 slider or with a Confocal microscope (TCS SP5; Leica) using an HCX Plan Apo CS×63.0 1.40 NA oil objective and the Leica Application Suite X (LAS X).

NIH3T3 = assay: Intracellular proteolysis of long half-life proteins (3H-leucine); format: cell-based, mouse; conditions: 10 μM; duration of increase after addition
Experimental: Proteolysis was calculated from aliquots of the medium taken at different times and precipitated in trichloroacetic acid, as the amount of acid-precipitable radioactivity transformed to acid-soluble radioactivity at each time.

CMA network = assay: Comparative transcriptomic analysis / qPCR of CMA network; format: cell-based, mouse; conditions: compared to AR7
Experimental: mRNA-qPCR: RNA was extracted from individual retinas. Total RNA from retinas was extracted using TRIzol Reagent (Invitrogen), and reverse transcription performed using the High-Capacity cDNA Reverse Transcription Kit (Applied Biosystems) according to the manufacturer's instructions. Quantitative real-time PCR was performed in a Light Cycler 480 Instrument (Roche) with Taqman Universal PCR Master Mix using Taqman assays (Life Tech-nologies). The following probes were used: Mm01184405_m1 (rhodopsin), F-5′-CTTAGCTTCTGGGATGC CCC-3′, R-5′-[…]-3′ (lamp2a) F-5′-AA GGACTCCTA TAGTGGG TGACGA-3′, R-5′-[…]-3′ (mouse β-actin).
Microarray: Total RNA of the treated cells was extracted using TRIzol (Invitrogen) and purified with RNeasy chromatography (Qiagen). Cy3-labeled RNA (0.6 μg) from each condition were hybridized to Agilent Mouse 8×60K. Data were processed using the oligo package and normalized using Robust Multiarray Average (RMA) method. Gene set was filtered to remove genes without Entrez or GO annotation (21912 genes out of 55682) and genes with an […]. The full microarray Gomez-Sintes et al. raw data will be deposited in GEO upon acceptance of the manuscript. Pathway analysis was performed using the STRING database ([…]).
CMA index was calculated using data set from Ly (J. Proteome Research (2016) 15: 1350-1359), Gao (2020), and Lane (2020). Briefly, each element of the CMA network was attributed a weight. As LAMP-2A is the rate limiting component of CMA, it was given a weight of 2. Every other element received a weight of 1. Then, every element was attributed direction score that is +1 or −1 based on the known effect of a given element on CMA activity. The score was then calculated as the weighted/directed average of expression counts of every element of the CMA network.

[1] = In vitro stability in liver microsomes; format: in vitro ADME; conditions: human liver microsomes
Experimental: (§1) In vitro solubility in the following conditions A) HBSS/HEPES 10 mM/BSA 0.1% pH 6 B) HBSS/HEPES 10 mM/BSA 0.1% pH 7.4 C) TRIS/BSA 0.1% PBS (pH 7.4 and at indicated doses were measured by Nephelometry using the NEPHELOstar Galaxy apparatus (BMG Lab Technologies). In vitro stability in human, mouse and rat liver microsomes and permeability using a bidirectional permeability assay with CaCo-2 cells (pH 6.5/7.4) assays were performed with standard methodology and analyzed by LC-MS/MS. at SIMM-SERVIER joint Biopharmacy Laboratory. In silico ADME properties calculated by QikProp (Schrodinger, LLC) analysis and ADME predictions for CA39 (left) and CA77 (right).

[2] = Bidirectional permeability assay with CaCo-2 cells; format: in vitro ADME
Experimental: as §1

[3] = system: retinal explants of rd10 mice; assay: Ex vivo retinal explants of rd10 mice; parameters: species or system mouse; conditions: 10 μM, 24 h; vs contralateral untreated explant
Experimental: Ex-vivo retinal cultures: After removal of the eyes, all non-relevant tissue was removed from the neuroretina, which was then placed, photoreceptors upside down, in millicell support inserts (Millipore) and maintained in DMEM with 1 μM insulin (SIGMA, I2643-25 mg) for 24 h at 37° C. in a 5% CO2 atmosphere. Where indicated, retinas were incubated with 10 µM CA77 for the indicated times. The retinas were then washed twice with phosphate-buffered saline (PBS), fixed overnight in 4% paraformaldehyde (w/v) in 0.1 M phosphate buffer (pH 7.4) and processed.
Staining of whole-mount retinas: Immunostainings were performed overnight at 4° ° C. using antibodies against visual arrestin (Santacruz Biotechnologies) and Opsin R/G (Millipore) after initial permeabilization with 2% Triton X-100 for 1 h at RT and subsequent incubation with blocking solution (10% normal goat serum, 0.25% Triton X-100 in PBS). The retinas were then washed and incubated for 1 h with Alexa 568 or 647 (Invitrogen), counterstained with DAPI, mounted in Fluoromount, and visualized by confocal microscopy in a SP5 confocal microscope (TCS SP5; Leica Microsystems).

Row | SMILES | CMA activation after washout (NIH3T3 cells) | CMA activating effect upon knock-down of NCoR1 (NIH3T3 cells) | CMA activation (NIH3T3 cells) | intracellular rates of degradation of long-lived proteins (NIH3T3) | predicted CMA activation score (CMA network) | metabolic stability [1] | membrane permeability [2] | cones (opsin-positive) [3] | number of rods (rod arrestin-positive) [3]
1 | Clc1ccc2c(c1)OCC(c1ccc(-c3ccccc3)cc1)=N2 [CA39] | activation was still noticeable | completely ablated the activating effect | activate CMA in a time and dose-dependent manner with higher potency than AR7 | remained upregulated 24 h after adding | higher | high to intermediate | – | – | –
2 | CC(=O)Nc1ccc(C2=Nc3ccc(Cl)cc3OC2)cc1 [CA77] | activation was still noticeable | completely ablated the activating effect | activate CMA in a time and dose-dependent manner with higher potency than AR7 | remained upregulated 24 h after adding | higher | high to intermediate | highly membrane permeable | higher preservation also for cones | significant preservation of the number of rods
